These results are taken from US8765773B2, “Substituted hydroxamic acids and uses thereof” (Millennium Pharmaceuticals, Inc., priority 2010, dated 2014).

The test deals with T1, purified human HDAC6 (Homo sapiens, UniProt Q9UBN7).
T1 construct: purchased BPS Bioscience 5006
T1 sequence (Q9UBN7 1-1215): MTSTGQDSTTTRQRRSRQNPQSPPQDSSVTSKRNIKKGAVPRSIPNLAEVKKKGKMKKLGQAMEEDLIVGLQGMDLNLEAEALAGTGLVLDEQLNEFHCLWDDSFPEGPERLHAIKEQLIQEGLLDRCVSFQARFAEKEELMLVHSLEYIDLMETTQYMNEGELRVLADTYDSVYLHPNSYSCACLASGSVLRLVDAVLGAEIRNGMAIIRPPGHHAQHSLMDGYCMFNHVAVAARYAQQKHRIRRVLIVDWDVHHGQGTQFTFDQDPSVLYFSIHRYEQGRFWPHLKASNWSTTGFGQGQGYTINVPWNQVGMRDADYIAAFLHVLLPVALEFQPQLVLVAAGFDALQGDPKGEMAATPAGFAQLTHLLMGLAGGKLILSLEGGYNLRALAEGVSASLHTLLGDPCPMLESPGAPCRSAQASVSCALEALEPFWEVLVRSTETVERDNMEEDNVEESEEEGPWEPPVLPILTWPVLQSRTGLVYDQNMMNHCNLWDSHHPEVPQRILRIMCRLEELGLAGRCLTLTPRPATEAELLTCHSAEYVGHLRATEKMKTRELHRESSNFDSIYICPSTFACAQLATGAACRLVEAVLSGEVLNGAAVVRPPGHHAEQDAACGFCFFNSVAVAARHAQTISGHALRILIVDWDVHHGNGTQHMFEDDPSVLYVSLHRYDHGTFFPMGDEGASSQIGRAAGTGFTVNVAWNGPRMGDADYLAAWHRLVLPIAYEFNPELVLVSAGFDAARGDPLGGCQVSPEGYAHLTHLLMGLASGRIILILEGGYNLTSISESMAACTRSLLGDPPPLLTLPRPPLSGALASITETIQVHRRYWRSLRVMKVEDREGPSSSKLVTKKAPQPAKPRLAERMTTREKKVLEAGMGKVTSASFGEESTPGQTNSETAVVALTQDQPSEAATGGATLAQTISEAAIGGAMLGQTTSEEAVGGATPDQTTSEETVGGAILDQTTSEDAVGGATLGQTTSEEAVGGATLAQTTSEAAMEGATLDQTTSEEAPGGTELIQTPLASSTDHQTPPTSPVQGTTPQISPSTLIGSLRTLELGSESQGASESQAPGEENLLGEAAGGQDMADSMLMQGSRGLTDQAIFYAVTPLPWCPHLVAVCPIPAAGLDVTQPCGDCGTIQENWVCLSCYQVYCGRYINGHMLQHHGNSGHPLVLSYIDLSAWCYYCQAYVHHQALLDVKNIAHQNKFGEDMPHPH
Nature of the test: HDAC6 Enzyme Assay. Conditions: compound concentration 0.37 μM, read-out: Percent Inhibition. Type of test: biochemical. In short, it runs like this:
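Purified human HDAC6 incubated 1 h at 30° C with Ac-Arg-Gly-Lys(Ac)-AMC peptide plus compound or DMSO; stopped with trichostatin A. Deacetylated product trypsin-digested, released AMC read by fluorescence (Ex 340/Em 460 nm). Percent inhibition at one concentration or IC50 from curves relative to DMSO controls.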
By inhibition is commonly meant the drop in the measured response relative to a control, in per cent. In the case of `O=C(NO)c1ccc2ccn(Cc3cccc(-n4cc5ccccc5n4)c3)c(=O)c2c1` [Compound I-308, N-hydroxy-2-[3-(2H-indazol-2-yl)benzyl]-1-oxo-1,2-dihydroisoquinoline-7-carboxamide], the inhibition at 0.37 µM was determined as 97.9%.
On to `CN(C)S(=O)(=O)c1cccc(-c2cccc(CCn3cnc4ccc(C(=O)NO)cc4c3=O)c2)c1` [Compound I-309, 3-(2-{3′-[(dimethylamino)sulfonyl]biphenyl-3-yl}ethyl)-N-hydroxy-4-oxo-3,4-dihydroquinazoline-6-carboxamide], for which the inhibition at 0.37 µM was 83.8%.
In the case of `O=C(NO)c1ccc2ccn(-c3ccccn3)c(=O)c2c1` [Compound I-310, N-hydroxy-1-oxo-2-pyridin-2-yl-1,2-dihydroisoquinoline-7-carboxamide], the inhibition at 0.37 µM is 90.3%.
For `O=C(NO)c1ccc2ncn(CCc3cccc(-c4cccc(C(F)(F)F)c4)c3)c(=O)c2c1` [Compound I-311, N-hydroxy-4-oxo-3-{2-[3′-(trifluoromethyl)biphenyl-3-yl]ethyl}-3,4-dihydroquinazoline-6-carboxamide], the inhibition at 0.37 µM stood at 91.6%.
`O=C(NO)c1ccc2ncn(CCc3cccc(-c4cccc(OC(F)(F)F)c4)c3)c(=O)c2c1` [Compound I-312, N-hydroxy-4-oxo-3-{2-[3′-(trifluoromethoxy)biphenyl-3-yl]ethyl}-3,4-dihydroquinazoline-6-carboxamide]: the inhibition at 0.37 µM stood at 76.2%.
For the compound `O=C(NO)c1ccc2ncn(CCc3cccc(-c4c(Cl)cccc4Cl)c3)c(=O)c2c1` [Compound I-313, 3-[2-(2′,6′-dichlorobiphenyl-3-yl)ethyl]-N-hydroxy-4-oxo-3,4-dihydroquinazoline-6-carboxamide], the inhibition at 0.37 µM stood at 73.2%.
For the compound `O=C(NO)c1ccc2ncn(CCc3cccc(-c4ccccc4Cl)c3)c(=O)c2c1` [Compound I-314, 3-[2-(2′-chlorobiphenyl-3-yl)ethyl]-N-hydroxy-4-oxo-3,4-dihydroquinazoline-6-carboxamide], the inhibition at 0.37 µM was 93.5%.
On to `CCN1CCC(CCn2ccc3ccc(C(=O)NO)cc3c2=O)CC1` [Compound I-315, 2-[2-(1-ethylpiperidin-4-yl)ethyl]-N-hydroxy-1-oxo-1,2-dihydroisoquinoline-7-carboxamide], for which the inhibition at 0.37 µM amounted to 90.1%.
Then `O=C(NO)c1ccc2ncn(CCc3cccc(-c4cccc(Cl)c4)c3)c(=O)c2c1` [Compound I-316, 3-[2-(3′-chlorobiphenyl-3-yl)ethyl]-N-hydroxy-4-oxo-3,4-dihydroquinazoline-6-carboxamide], with 87.7%; and `CC(C)(C)OC(=O)N1CCC(c2cccc(CCn3ccc4ccc(C(=O)NO)cc4c3=O)c2)CC1` [Compound I-317, tert-butyl 4-(3-{2-[7-[(hydroxyamino)carbonyl]-1-oxoisoquinolin-2(1H)-yl]ethyl}phenyl)piperidine-1-carboxylate], with 93.2%; and `O=C(NO)c1ccc2ncn(CCc3cccc(-c4csc5ccccc45)c3)c(=O)c2c1` [Compound I-318, 3-{2-[3-(1-benzothien-3-yl)phenyl]ethyl}-N-hydroxy-4-oxo-3,4-dihydroquinazoline-6-carboxamide], with 86.4%.
Under `Cn1cc(-c2cccc(Cn3ccc4ccc(C(=O)NO)cc4c3=O)c2)cn1` [Compound I-319, N-hydroxy-2-[3-(1-methyl-1H-pyrazol-4-yl)benzyl]-1-oxo-1,2-dihydroisoquinoline-7-carboxamide] stands 98.6%; under `COc1ncccc1-c1cccc(CCn2cnc3ccc(C(=O)NO)cc3c2=O)c1` [Compound I-320, N-hydroxy-3-{2-[3-(2-methoxypyridin-3-yl)phenyl]ethyl}-4-oxo-3,4-dihydroquinazoline-6-carboxamide], 90.4%.
Take `O=C(O)c1ccc(-c2cccc(CCn3cnc4ccc(C(=O)NO)cc4c3=O)c2)cc1` [Compound I-321, 3′-{2-[6-[(hydroxyamino)carbonyl]-4-oxoquinazolin-3(4H)-yl]ethyl}biphenyl-4-carboxylic acid]: the inhibition at 0.37 µM is 87.3%.
For the compound `Nc1cccc(-c2cccc(CCn3cnc4ccc(C(=O)NO)cc4c3=O)c2)c1` [Compound I-322, 3-[2-(3′-aminobiphenyl-3-yl)ethyl]-N-hydroxy-4-oxo-3,4-dihydroquinazoline-6-carboxamide], the inhibition at 0.37 µM came to 76.1%.
As for `O=C(NO)c1ccc2ncn(CCc3cccc(-c4ccn[nH]4)c3)c(=O)c2c1` [Compound I-323, N-hydroxy-4-oxo-3-{2-[3-(1H-pyrazol-5-yl)phenyl]ethyl}-3,4-dihydroquinazoline-6-carboxamide], the inhibition at 0.37 µM was determined as 94.6%.
`O=C(NO)c1ccc2ccn(CCc3cccc(C4CCNCC4)c3)c(=O)c2c1` [Compound I-324, N-hydroxy-1-oxo-2-[2-(3-piperidin-4-ylphenyl)ethyl]-1,2-dihydroisoquinoline-7-carboxamide]: the inhibition at 0.37 µM amounted to 91.2%.
Regarding `O=C(NO)c1ccc2ncn(CCc3cccc(-c4ccccc4C(F)(F)F)c3)c(=O)c2c1` [Compound I-325, N-hydroxy-4-oxo-3-{2-[2′-(trifluoromethyl)biphenyl-3-yl]ethyl}-3,4-dihydroquinazoline-6-carboxamide], the inhibition at 0.37 µM amounted to 42.1%.
As for `CC(C)(C)C(=O)Nc1ncccc1-c1cccc(CCn2cnc3ccc(C(=O)NO)cc3c2=O)c1` [Compound I-327, 3-[2-(3-{2-[(2,2-dimethylpropanoyl)amino]pyridin-3-yl}phenyl)ethyl]-N-hydroxy-4-oxo-3,4-dihydroquinazoline-6-carboxamide], the inhibition at 0.37 µM was found to be 92%.
Regarding `O=C(NO)c1ccc2ccn(-c3cccc(-c4ccncc4)c3)c(=O)c2c1` [Compound I-328, N-hydroxy-1-oxo-2-(3-pyridin-4-ylphenyl)-1,2-dihydroisoquinoline-7-carboxamide], the inhibition at 0.37 µM stood at 96.7%.
Consider `COc1ccc(-c2cccc(CCn3cnc4ccc(C(=O)NO)cc4c3=O)c2)cn1` [Compound I-329, N-hydroxy-3-{2-[3-(6-methoxypyridin-3-yl)phenyl]ethyl}-4-oxo-3,4-dihydroquinazoline-6-carboxamide], for which the inhibition at 0.37 µM is 92.6%.
As for `O=C(NO)c1ccc2ncn(CCc3cccc(-c4cccnc4)c3)c(=O)c2c1` [Compound I-331, N-hydroxy-4-oxo-3-[2-(3-pyridin-3-ylphenyl)ethyl]-3,4-dihydroquinazoline-6-carboxamide], the inhibition at 0.37 µM is 87.2%.
Regarding `O=C(NO)c1ccc2ncn(CCNCc3cccc(-n4cccn4)c3)c(=O)c2c1` [Compound I-332, N-hydroxy-4-oxo-3-(2-{[3-(1H-pyrazol-1-yl)benzyl]amino}ethyl)-3,4-dihydroquinazoline-6-carboxamide], the inhibition at 0.37 µM came to 90.4%.
Under `CC(=O)Nc1ccc(-c2cccc(CCn3cnc4ccc(C(=O)NO)cc4c3=O)c2)cc1` [Compound I-334, 3-{2-[4′-(acetylamino)biphenyl-3-yl]ethyl}-N-hydroxy-4-oxo-3,4-dihydroquinazoline-6-carboxamide] stands 93.8%; under `Cc1noc(C)c1-c1cccc(CCn2cnc3ccc(C(=O)NO)cc3c2=O)c1` [Compound I-336, 3-{2-[3-(3,5-dimethylisoxazol-4-yl)phenyl]ethyl}-N-hydroxy-4-oxo-3,4-dihydroquinazoline-6-carboxamide], 90.5%; under `O=C(NO)c1ccc2c(CO)cn(Cc3ccccc3)c(=O)c2c1` [Compound I-337, 2-benzyl-N-hydroxy-4-(hydroxymethyl)-1-oxo-1,2-dihydroisoquinoline-7-carboxamide], 57.7%.
In the case of `CC(C)C(c1ccccc1)n1cnc2ccc(C(=O)NO)cc2c1=O` (stereo not shown) [Compound I-338, N-hydroxy-3-(2-methyl-1-phenylpropyl)-4-oxo-3,4-dihydroquinazoline-6-carboxamide], the inhibition at 0.37 µM is 96.8%.
Then `COc1cccc(-c2cccc(CCn3cnc4ccc(C(=O)NO)cc4c3=O)c2)c1` [Compound I-339, N-hydroxy-3-[2-(3′-methoxybiphenyl-3-yl)ethyl]-4-oxo-3,4-dihydroquinazoline-6-carboxamide], with 89.9%.
